The record followed here is ChEMBL document CHEMBL1129930, “Analogues of methotrexate in rheumatoid arthritis. 2. Effects of 5-deazaaminopterin, 5,10-dideazaaminopterin, and analogues on type II collagen-induced arthritis in mice” (J Med Chem, 1997).

Test [1] has as its system Mus musculus. The test can be described thus: Tested for antiinflammatory activity on mouse type II collagen arthritis as Paw swelling of all animals in each group on day 23 at intraperitoneal dose of 0.38 mg/kg. Type of test: functional.
Test [2] deals with Mus musculus. The test can be described thus: Tested for antiinflammatory activity on mouse type II collagen arthritis as Paw swelling of all animals in each group on day 23 at intraperitoneal dose of 0.047 mg/kg. The class given is functional.
Test [3] relates to Mus musculus. In words: Tested for antiinflammatory activity on mouse type II collagen arthritis as Paw swelling of all animals in each group on day 30 at intraperitoneal dose of 0.047 mg/kg. The class given is functional.
Test [4] relates to Mus musculus. In words: Incidence of disease (mouse type II collagen) was scored as the percentage of animals within each experimental group that exhibited joint or limb inflammation on day 23 at intraperitoneal dose of 0.024 mg/kg (deaths observed at 1.5 mg/kg). Type of test: functional.
For test [5], the system named is Mus musculus. The test can be described thus: Tested for antiinflammatory activity on mouse type II collagen arthritis as Paw swelling of all animals in each group on day 23 at intraperitoneal dose of 0.094 mg/kg. The class given is functional.
The subject of test [6] is Mus musculus. In words: Incidence of disease (mouse type II collagen) was scored as the percentage of animals within each experimental group that exhibited joint or limb inflammation on day 30 at intraperitoneal dose of 0.75 mg/kg (deaths observed at 1.5 mg/kg). The class given is functional.
Test [7] concerns Mus musculus. In words: Tested for antiinflammatory activity on mouse type II collagen arthritis as Paw swelling of all animals in each group on day 23 at intraperitoneal dose of 0.19 mg/kg. Type of test: functional.
Test [8] relates to Mus musculus. In words: Incidence of disease (mouse type II collagen) was scored as the percentage of animals within each experimental group that exhibited joint or limb inflammation on day 30 at intraperitoneal dose of 0.024 mg/kg (deaths observed at 1.5 mg/kg). The class given is functional.
For test [9], the system named is Mus musculus. In words: Incidence of disease (mouse type II collagen) was scored as the percentage of animals within each experimental group that exhibited joint or limb inflammation on day 44 at intraperitoneal dose of 0.19 mg/kg (deaths observed at 1.5 mg/kg). Type of test: functional.
The test system of test [10] is Mus musculus. The test can be described thus: Incidence of disease (mouse type II collagen) was scored as the percentage of animals within each experimental group that exhibited joint or limb inflammation on day 44 at intraperitoneal dose of 0.047 mg/kg (deaths observed at 1.5 mg/kg). Type of test: functional.
Test [11] concerns Mus musculus. The test can be described thus: Incidence of disease (mouse type II collagen) was scored as the percentage of animals within each experimental group that exhibited joint or limb inflammation on day 37 at intraperitoneal dose of 0.38 mg/kg (deaths observed at 1.5 mg/kg). Type of test: functional.
The test system of test [12] is Mus musculus. The test can be described thus: Incidence of disease (mouse type II collagen) was scored as the percentage of animals within each experimental group that exhibited joint or limb inflammation on day 44 at intraperitoneal dose of 0.024 mg/kg (deaths observed at 1.5 mg/kg). The class given is functional.
Test [13] relates to Mus musculus. In words: Incidence of disease (mouse type II collagen) was scored as the percentage of animals within each experimental group that exhibited joint or limb inflammation on day 23 at intraperitoneal dose of 0.38 mg/kg (deaths observed at 1.5 mg/kg). The class given is functional.
Test [14] relates to Mus musculus. The test can be described thus: Incidence of disease (mouse type II collagen) was scored as the percentage of animals within each experimental group that exhibited joint or limb inflammation on day 37 at intraperitoneal dose of 0.094 mg/kg (deaths observed at 1.5 mg/kg). The class given is functional.
Test [15] deals with Mus musculus. The test can be described thus: Tested for antiinflammatory activity on mouse type II collagen arthritis as Paw swelling of all animals in each group on day 30 at intraperitoneal dose of 0.19 mg/kg. The class given is functional.
A further test concerns L1210. The test can be described thus: Concentration required to inhibit the growth of L1210 cells. The class given is functional, cell-based. The note with it: Mus musculus.

Turning to `CCc1c(CN(C)c2ccc(C(=O)NC(CCC(=O)O)C(=O)O)cc2)cnc2nc(N)nc(N)c12` (stereo unspecified), the Paw swelling in the test on Mus musculus [1] came out at 2.15 mm; in the test on Mus musculus [2], 2.1 mm; with Mus musculus [3] it was 2.21 mm; in the test with Mus musculus [5] it was 2.15 mm; with Mus musculus [7] it was 2.11 mm; with Mus musculus [15], 2.14 mm. Besides, the Animals with Mus musculus [4] came out at 0%; with Mus musculus [6], 14%; in the test with Mus musculus [8], 0%; in the test on Mus musculus [9], 12%; in the test on Mus musculus [10] it was 88%; with Mus musculus [11] it was 0%. Moreover, the Animals in the test with Mus musculus [12] was 25%; in the test with Mus musculus [13] it was 0%; in the test on Mus musculus [14], 25%. Also, half-maximal inhibition with L1210 (IC50) required 1 nM.
